Key:
Molm14 D835Y cells = experiment: Cell viability assay (CellTiter GLO), Molm14 D835Y; assay type: cell-based, human; details: 48 hours
Procedure: (§1) FIG. 1. […] Cells were treated with inhibitor at increasing log doses (0.1 nM-10 μM) for 48 hours. Cell viability was analyzed through CellTiter GLO. […] Cells were exposed to increasing amounts of each drug for 2 hours. GAPDH1 represents loading control for phospho-ERK and ERK blots. GAPDH2 represents loading control for phosphor-STAT5, STAT5, phospho-S6 and S6. Each experiment was completed in triplicate. Representative images are shown.
FIG. 5. […] Cells were dosed with inhibitor at increasing log doses (0.1 nM-10 μM) for 48 hours. Cell viability was analyzed through CellTiter GLO.
(§2) MV-4-11 and parental Molm-14 cells were a gift from Dr. Scott Kogan (University of California, San Francisco). HL60 and K562 cell lines were obtained from Charles Sawyers. […] Stable Ba/F3 lines were generated by retroviral infection as previously described (5). All cell lines were tested to be mycoplasma free and human cell lines were authenticated through STR profiling completed at the University of California, Berkeley.
(§3) Each triplicate was either dosed with drug or DMSO vehicle control. Drug dosing was completed at log doses ranging from 0.1 nM-10 μM. Cell viability was assessed after 48 hours using CellTiter GLO (Promega). Viability values were normalized to the vehicle control average. Numerical IC50 values were calculated in GraphPad Prism 7.

[1] = system: FLT3 phosphorylation in Molm14 D835Y cells; experiment: Immunoblotting of phospho-FLT3 and downstream signaling, Molm14 D835Y; assay type: cell-based, human; details: 2 hours, Western blot
Procedure: (§4) FIG. 1. Activity of compounds 1 and 2 against parental Molm14 cells harboring secondary kinase domain mutations associated with clinical resistance to active FLT3 TKIs. […] Each point represents the calculated IC50 from an independent experiment completed in triplicate. Cells were treated with inhibitor at increasing log doses (0.1 nM-10 μM) for 48 hours. Cell viability was analyzed through CellTiter GLO. […] Cells were exposed to increasing amounts of each drug for 2 hours. GAPDH1 represents loading control for phospho-ERK and ERK blots. GAPDH2 represents loading control for phosphor-STAT5, STAT5, phospho-S6 and S6. Each experiment was completed in triplicate. Representative images are shown.
(§5) Exponentially growing Molm-14 or Ba/F3 cells were plated with RPMI 1640+10% (vol/vol) FBS with the indicated amount of drug. Following 120 minute incubation at 37° C., cells were washed in PBS and lysed in HEPES lysis buffer supplemented with protease and phosphatase inhibitors and processed as previously described (39). Immunoblotting was performed using anti-phospho-tyrosine 4G10 antibody (Millipore Sigma) and anti-FLT3 antibody (Cell Signaling Technology) following immunoprecipitation with anti-FLT3 antibody from 500 μg of total protein. Immunoblotting of ERK, STAT5, S6 and GAPDH was performed with anti-phospho-ERK, anti-ERK, anti-phospho-STAT5, anti-STAT5, anti-phospho-S6, anti-S6 and anti-GAPDH antibody (Cell Signaling Technology)

[2] = system: normal donor bone marrow mononuclear cells (BM-MNC); experiment: Colony forming unit assay of normal bone marrow; details: for impact on CFU-G counts/growth: equivalent multiples of Molm14 IC50, 14 days, three healthy donors
Procedure: FIG. 2. […] Normal bone marrow mononuclear cells (BM-MNC) were purchased from StemCell Technologies. 30,000 cells were plated in methylcellulose with increasing concentrations of either gilteritinib, 1, or 2. Blast forming unit-erythroid (BFU-E) and colony forming unit-granulocyte (CFU-G) were counted after 14 days incubation. Assay was completed in triplicate with three independent blood donors. Data shown is cumulated from all independent experiments. Error bars show one standard deviation and p values compared to control were calculated using a Student's t-test. NS indicates an insignificant p value, * indicates p value≤0.05, ** indicates p value≤0.01, *** indicates p value≤0.001, **** indicates p value≤0.0001
Bone marrow mononuclear cells (BM-MNC) of healthy donors (n=3) were purchased from StemCell Technologies (Vancouver, Canada). Cells were plated in a 35 mm dish in triplicate with methylcellulose medium at a concentration previously determined to form approximately 100 total colonies, usually 30,000 cells/mL and containing the appropriate amount of drug. Dishes were incubated for 14-15 days and visually assessed for erythrocyte burst-forming units and granulocyte-macrophage colony-forming units.

[3] = system: HL60 cells (non-FLT3 driven); experiment: Cell viability assay (CellTiter GLO), HL60; assay type: cell-based, human; details: HL60, 48 hours
Procedure: as §1, §2, §3

[4] = system: NCI-60 cell line panel (no FLT3 mutation); experiment: NCI-60 cell line panel; assay type: cell-based, human; details: for cytotoxic activity in NCI-60 panel, in words: compound 1: 30 μM single dose, compound 2: 5-dose; for antiproliferative effects in NCI-60 panel, in words: higher concentrations
Procedure: FIG. 12. Activity of compound 1 against the NCI-60 cell line panel. Percentage growth of 1 in the 30 μM single dose experiment within the NCI-60 cell line panel. No cell line within the panel harbors a FLT3 mutation.
FIG. 13. Activity of compound 2 against the NCI-60 cell line panel. Growth inhibition curves of 2 in the 5-dose GIso experiment within the NCI-60 cell line panel. No cell line within the panel harbors a FLT3 mutation.
Myelosuppression represents a critical limitation of current FLT3 TKIs. To assess the selectivity profiles, KINOMEscan screening was performed for 1, 2, and gilteritinib at 20× the Molm14 IC50 concentration of each compound (FIG. 2A).

[5] = system: MV-4-11 cells (FLT3-ITD-expressing); experiment: Cell viability assay (CellTiter GLO), MV-4-11; assay type: cell-based, human; details: MV-4-11, 48 hours
Procedure: as §1, §2, §3

[6] = system: FLT3 phosphorylation in Molm14 F691L cells; experiment: Immunoblotting of phospho-FLT3 and downstream signaling, Molm14 F691L; assay type: cell-based, human; details: 2 hours, Western blot
Procedure: as §4, §5

Compound: CN(C)CCNc1ncc(F)c(-c2cnc3cc(-c4cnn(C)c4)ccn23)n1 [Compound 1]
- activity in cell viability assay (IC50, FIG. 1A/5B), in words (Molm14 D835Y cells): retain activity
- inhibition of FLT3 phosphorylation and downstream targets, in words [1]: potent inhibition of phosphorylation
- impact on BFU-E counts/growth [2]: no significant impact on BFU-E growth at any concentration
- impact on CFU-G counts/growth [2]: less impact on CFU-G growth than gilteritinib
- activity in cell viability assay (IC50, FIG. 1A), in words [3]: neither compound displayed any concerning toxicity
- cytotoxic activity in NCI-60 panel, in words [4]: neither compound displayed any significant cytototoxic activity
- antiproliferative effects in NCI-60 panel, in words [4]: antiproliferative effects were noted at higher concentrations
- activity in cell viability assay (IC50, FIG. 1A), in words [5]: activity comparable to quizartinib and superior to gilteritinib
- inhibition of FLT3 phosphorylation, in words [6]: decreased level of activity

Compound: CC(C)(C)c1cc(NC(=O)Cc2ccc(-c3cnc4cc(-c5cnn(CCN6CCOCC6)c5)ccc4n3)cc2)no1 [Compound 2, N-(5-(tert-butyl)isoxazol-3-yl)-2-(4-(6-(1-(2-morpholinoethyl)-1H-pyrazol-4-yl)quinoxalin-2-yl)phenyl) acetamide]
- activity in cell viability assay (IC50, FIG. 1A/5B), in words (Molm14 D835Y cells): retain activity
- concentration that fully ablated FLT3 phosphorylation [1]: 50 nM
- inhibition of FLT3 phosphorylation and downstream targets, in words [1]: somewhat decreased ability to inhibit phosphorylation
- impact on BFU-E counts/growth [2]: no significant impact on BFU-E growth at any concentration
- impact on CFU-G counts/growth [2]: less impact on CFU-G growth than gilteritinib
- activity in cell viability assay (IC50, FIG. 1A), in words [3]: neither compound displayed any concerning toxicity
- cytotoxic activity in NCI-60 panel, in words [4]: neither compound displayed any significant cytototoxic activity
- antiproliferative effects in NCI-60 panel, in words [4]: antiproliferative effects were noted at higher concentrations
- activity in cell viability assay (IC50, FIG. 1A), in words [5]: activity comparable to quizartinib and superior to gilteritinib
- concentration with complete elimination of phosphorylation [6]: 50 nM
- concentration with noticeable decrease in phosphorylation [6]: 10 nM
- inhibition of FLT3 phosphorylation, in words [6]: most potent of all the inhibitors evaluated

Reference: patent publication US20260232684A1, “FLT3 INHIBITORS AND METHODS OF USING THE SAME” (BIOVENTURES, LLC, priority 2023, published 2026)
